Data published in the METLIN SMRT retention time set (Domingo-Almenara et al. 2019).

Assay: gradient 5% acetonitrile 3 min, to 50% in 2 min, to 85% in 15 min, held 3 min, 100 µL/min
Conditions: column: Zorbax Extend-C18 2.1 x 50 mm; eluents: water / acetonitrile, 0.1% formic acid
Summary of the method: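 Retention time was recorded from adduct peaks, which were picked computationally and each inspected manually. Pure standards ran in mixtures of ~100 molecules on HPLC coupled to a quadrupole time-of-flight mass spectrometer, in positive and negative ionization mode, through a Zorbax Extend-C18 column (2.1 × 50 mm, 1.8 μm) at 100 μL/min. Eluents were water and acetonitrile, each with 0.1% formic acid.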

RP-LC retention time | SMILES
852 s | CC(Oc1ccccc1)c1nc(-c2ccc3c(c2)nnn3CCC(=O)N2CCOCC2)no1 (configuration not stated)
814 s | CC(C)CNC(=O)c1nc(-c2ccnc(N3CCC(C)CC3)c2)no1
836 s | CCn1ncc(NC(=O)Cc2ccc(Cl)cc2)c(N2CCOCC2)c1=O
581 s | Cc1ccc(C(=O)c2cnc3cc4c(cc3c2N2CCN(C)CC2)OCO4)cc1C
650 s | COc1ccc(N2CCN(C(=O)CCN3C(=O)C4C5C=CC(C5)C4C3=O)CC2)cc1 (configuration not stated)
1040 s | Cc1ccccc1Nc1c(-c2ccccc2O)nc2ccc(Cl)cn12
686 s | CCN(Cc1ccncc1)C1CN(S(=O)(=O)c2ccc3c(c2)CCC3)C1
925 s | COc1ccc(NC(=O)Cn2cccc(-c3nc(-c4ccc(Br)cc4)no3)c2=O)cc1
553 s | COC[C@@H]1CN(Cc2ccc(C#N)cc2)C[C@H]1c1ccccn1
1360 s | Cc1ccc(C)c(N2CCN(S(=O)(=O)c3cc(-c4csc(C)n4)sc3C)CC2)c1
910 s | COc1ccc(C2(C(=O)N3CCC(c4nc(-c5cccn5C)no4)C3)CC2)cc1 (configuration not stated)

Further lines, the molecule ahead of its results:

SMILES | RP-LC retention time
COc1ccc(NC(=O)CSc2cc(N3CCN(c4ccccc4OC)CC3)ncn2)c(OC)c1 | 791 s
Clc1ccc(C(OCCN2CCCCC2)c2ccccc2)cc1 (configuration not stated) | 850 s
Cc1cc(C)n(-c2ccnc(N3CCC(C(=O)NCc4ccc(F)cc4)CC3)n2)n1 | 833 s
COc1ccc(NC(=O)Nc2c(-c3ccc(F)cc3)nc3ccccn23)cc1OC | 629 s
O=C(Cn1cnc2nc(N3CCC(C(=O)NC4CC4)CC3)sc2c1=O)NC1CCCCC1 | 649 s
Cc1cccc(OCCc2noc(C3CN(S(=O)(=O)N(C)C)C3)n2)c1 | 950 s
CCc1ccccc1S(=O)(=O)NCC(c1cccnc1)c1c[nH]c2ccccc12 (configuration not stated) | 706 s
Cc1nc2c(c(N3CCSCC3)n1)CCC2 | 588 s
Cc1ccc(NS(=O)(=O)c2cn(CC(C)C)c3ncccc23)cc1 | 986 s
CC(C)CCN1CCC(N2CCN(CCc3ccccc3)CC2)C1=O (configuration not stated) | 565 s
Cc1ccccc1Nc1c(-c2ccccc2O)nc2ccccn12 | 701 s
COc1ccc(-c2nnc(-c3ccccc3Cl)o2)cc1S(=O)(=O)N1CCCC1 | 969 s
O=C(CN1CCN(Cc2ccccc2F)C1=O)N1CCN(c2ccccc2)CC1 | 778 s
CC1CN(C(=O)N2CCC(C(=O)N3CCC(C(N)=O)CC3)CC2)c2cc(Cl)ccc2O1 (configuration not stated) | 679 s
C=CCn1ccc2c(OCC(=O)NC3CCCC3)cccc2c1=O | 788 s
CCOc1ccccc1-c1noc(Cn2c(=O)n(CCCOC)c(=O)c3ccccc32)n1 | 1060 s
COc1ccc(NC(=O)Cn2nc(C(=O)N3CCCCC3)c3ccccc32)cc1OC | 756 s
Cn1c(=O)n(C)c2cc(CNCC(O)c3ccccc3)ccc21 (configuration not stated) | 569 s
CNC(=O)C1CCCN(c2nc3ncn(CC(=O)Nc4ccccc4Cl)c(=O)c3s2)C1 (configuration not stated) | 654 s
CN(CCc1noc(COc2ccc(Cl)cc2)n1)C(=O)NCCc1ccccc1 | 965 s
COc1ccccc1NC(=O)N1CCc2cn(C)c3cccc(c23)C1 | 944 s
COc1ccc2c(c1)c(CN1CCC(C(=O)NCc3ccccc3C)CC1)cn2C | 697 s
Cc1ccc(-c2noc(Cn3ccn(-c4c(C)cccc4C)c(=O)c3=O)n2)cc1 | 925 s
CN(C)c1nn(CC(=O)Nc2ccc(F)cc2Cl)c(=O)c2ccccc12 | 913 s
COc1ccc(CCNC(=O)Cc2csc3nc(-c4ccc(OC)c(OC)c4)cn23)cc1OC | 661 s
NC(=O)C(=O)c1cn(Cc2ccc(F)cc2)c2ccccc12 | 811 s
